Patent US12527777B2, “Sustained release pyridostigmine compositions” (priority 2018, dated 2026)

Legend:
[1] = in vivo; cited from earlier work
[2] = Effect of relative humidity on adsorption of water vapour (deliquescence); type: physicochemical

| SMILES | biological half-life [1] | relative humidity (RH) at which deliquescence is exhibited [2] [%] |
| --- | --- | --- |
| CN(C)C(=O)Oc1ccc[n+](C)c1 [Pyridostigmine, (1-methylpyridin-1-ium-3-yl) N,N-dimethylcarbamate] | 2-3 hours | – |
| CN(C)C(=O)Oc1ccc[n+](C)c1 [pyridostigmine bromide] | – | 33 |
